Test [1] in a line: NIH3T3 cell viability loss – ATP luminescence, mouse fibroblasts, counter-screen, dose response (AID 2010).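 Note: cells exposed to compound for about 90 hours before reading.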 Type of test: functional, cell-based.
A short description of test [2]: Trypanosoma cruzi growth suppression in host cells – NIH3T3 host cells, beta-gal luminescence, confirmation (AID 2044).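 Note: intracellular parasites grown in NIH/3T3 mouse fibroblasts as host cells; luminescent beta-galactosidase reporter signal from transgenic T. cruzi replicating inside host cells; inhibitors lower the luminescence signal.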 Type of test: functional, cell-based.
The next test has as its target Cytochrome P450 2D6 (Homo sapiens, UniProt P10635).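 Note: CYP2D6 member of a cytochrome P450 panel assay.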

Calls of active or inactive are those of the source. Cut-off read from the data, not from the text of the source, for most assays here: actives have a measured EC50 and inactives only a lower limit.

Chain of Cytochrome P450 2D6 (P10635 whole entry): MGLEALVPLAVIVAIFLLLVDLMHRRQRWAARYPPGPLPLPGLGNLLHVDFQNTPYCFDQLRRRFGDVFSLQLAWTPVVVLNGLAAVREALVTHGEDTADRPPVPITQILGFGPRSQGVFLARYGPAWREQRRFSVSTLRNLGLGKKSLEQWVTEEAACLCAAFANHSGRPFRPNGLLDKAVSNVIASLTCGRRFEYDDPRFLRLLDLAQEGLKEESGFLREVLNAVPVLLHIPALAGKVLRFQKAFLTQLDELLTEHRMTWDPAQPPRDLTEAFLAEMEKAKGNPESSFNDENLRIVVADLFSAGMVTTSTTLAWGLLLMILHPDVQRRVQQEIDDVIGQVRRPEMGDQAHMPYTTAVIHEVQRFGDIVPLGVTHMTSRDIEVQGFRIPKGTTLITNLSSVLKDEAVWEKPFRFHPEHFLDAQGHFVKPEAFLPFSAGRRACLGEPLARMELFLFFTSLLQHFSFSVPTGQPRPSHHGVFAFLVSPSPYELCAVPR

With `COc1ccc(CN(C)CC(O)COc2ccc(-c3ccccc3)cc2)cc1OC` (configuration not stated), the EC50 in test [1] was 21.7 µM (active); in test [2] it was 0.447 µM (active).

With `CCOC(=O)C1(Cc2ccccc2C(F)(F)F)CCN(C(C)CCn2cccn2)CC1` (configuration not stated), the EC50 in test [1] is > 60 µM (not active); in test [2] it was 0.944 µM (active).

For `CC(C)n1cc(CN2CCN(C)C(CCO)C2)c2ccccc21` (configuration not stated), the EC50 in test [1] was > 60 µM (not active); in test [2], 0.109 µM (active). As to `O=C(NC(=S)Nc1ccc2c(c1)OCO2)c1ccccc1`, at Cytochrome P450 2D6, the AC50 is 3.55 µM (inconclusive). For the molecule `O=S(=O)(Nc1ccc2oc(-c3ccccc3)nc2c1)c1ccccc1`, the half-maximal activity concentration (AC50) at Cytochrome P450 2D6 was 25.1 µM (inconclusive). On to `Cc1ccc(C(=O)N/N=C\c2ccc([N+](=O)[O-])o2)cn1`, for which the EC50 is > 60 µM (not active) in test [1] and 0.238 µM (active) in test [2]. `COc1ccc(OC)c2nc(O)c(CCNC(=O)c3ccc(S(=O)(=O)N4CCCC4)cc3)cc12`: the AC50 at Cytochrome P450 2D6 is 20 µM (inconclusive). Consider `Clc1cc(/C=N\NC2=NCCN2)cc(Cl)n1`, for which the concentration for a half-maximal effect (EC50) in test [1] was > 60 µM (not active); in test [2], 0.663 µM (active). Turning to `COc1ccc(NC(=O)CCOc2ccccc2)cc1`, at Cytochrome P450 2D6, the AC50 is 22.4 µM (inconclusive).

On to `CCCCCC(=O)N1CCCC(c2nc(-c3ccc(OC)cc3)no2)C1` (configuration not stated), for which the concentration at half-maximal activity (AC50) on Cytochrome P450 2D6 is 15.8 µM (inconclusive).

With `C/C(=N\NC(=O)CC1N=C(Cc2ccccc2)NNC1=O)c1ccc(Cl)cc1Cl` (configuration not stated), the AC50 at Cytochrome P450 2D6 was 15.8 µM (inconclusive). As to `O=c1c(CCc2ccccc2)nc2cncnc2n1Cc1ccc(F)cc1`, the concentration at half-maximal activity (AC50) at Cytochrome P450 2D6 is 25.1 µM (inconclusive).

`CCOC(=O)C1(CCOc2ccccc2)CCN(Cc2cccc3c2OCO3)CC1`: the EC50 in test [1] was > 60 µM (not active); in test [2], 2.1 µM (active).

Take `COC1CCN(Cc2c(C(=O)N3CCN(C4CCCCC4)CC3)nc3ccccn23)CC1`: the half-maximal effective concentration (EC50) is > 60 µM (not active) in test [1] and 1.63 µM (active) in test [2]. `Cc1cnc(CNc2ncncc2-c2ccccc2C)cn1`: at Cytochrome P450 2D6, the AC50 was 12.6 µM (inconclusive). For the molecule `Cc1cccc(CNc2cc(-c3ccccc3Cl)ncn2)c1`, the AC50 on Cytochrome P450 2D6 is 39.8 µM (inconclusive). For `COC(=O)[C@@H]1c2cc3c(c(O)c2[C@@H](O)C[C@]1(C)O)C(=O)c1c(O)cc2c(c1C3=O)O[C@H]1O[C@@]2(C)[C@@H](O)[C@H](N(C)C)[C@H]1O`, the concentration at half-maximal activity (AC50) at Cytochrome P450 2D6 is 5.01 µM (inconclusive).

Turning to `CCCOc1ccc(CNC(=S)N/N=C/c2ccc([N+](=O)[O-])cc2)cc1`, the half-maximal effective concentration (EC50) in test [1] is > 60 µM (not active); in test [2] it was 1.99 µM (active). As to `COCC(=O)N1CCC2(CC1)CN(c1ccccn1)C2`, the concentration at half-maximal activity (AC50) on Cytochrome P450 2D6 was 20 µM (inconclusive). Regarding `Cc1c(-c2cccc(NC(=O)c3ccco3)c2)nc2ncccn12`, the EC50 was > 60 µM (not active) in test [1] and 1.78 µM (active) in test [2]. `C=CCN(c1ccccc1)S(=O)(=O)c1cccc(C(=O)NC2CCN(Cc3ccccc3)CC2)c1`: the EC50 was 26.8 µM (active) in test [1] and 0.215 µM (active) in test [2]. For the molecule `Fc1cccc(NC(=S)N2CCn3cccc3C2c2cccnc2)c1` (configuration not stated), the figures for the EC50 in test [1] and in test [2] were > 60 µM (not active) and 0.885 µM (active), respectively. Turning to `Cc1cccc2nc(CNC(=O)CC3C(=O)NCCN3Cc3cccc(F)c3)cn12` (configuration not stated), the half-maximal effective concentration (EC50) in test [1] and in test [2] was > 60 µM (not active) throughout. For `O=C(c1ccc2c3c(cccc13)CC2)C1CCCN(Cc2cccnc2)C1` (configuration not stated), the EC50 in test [1] was > 60 µM (not active); in test [2] it was 0.709 µM (active). As to `CCOc1ccc(C(=O)c2ccc([N+](=O)[O-])cc2Cl)cc1`, the values for the concentration giving a half-maximal response (EC50) in test [1] and in test [2] were > 30 µM (not active) and 2.18 µM (active), respectively.

For the molecule `CN(C)c1ncc2nc(-c3ccc(F)cc3)c(=O)n(-c3ccccc3)c2n1`, on Cytochrome P450 2D6, the concentration at half-maximal activity (AC50) was 1.58 µM (inconclusive). For `O=[N+]([O-])c1nn(-c2ccc3c(c2)OCCO3)[n+]([O-])c1NCc1ccc(F)cc1`, the EC50 in test [1] was > 60 µM (inconclusive); in test [2] it was 0.595 µM (active).

These data come from ChEMBL document CHEMBL1201862, “PubChem BioAssay data set” (2004).
